Patent US7214703B2, “Pyrrolidinohydrochinazolines” (Boehringer Ingelheim International GmbH, priority 2003, dated 2007)
Counter-ions that a name gives are not always drawn.

Legend:
[1] = biological target: T1, human chemokine receptor CCR3 (Homo sapiens, UniProt P51677); assay: CCR3 receptor binding assay (SPA, 125I-eotaxin-1, membranes of hCCR3 transfected K562 cells); conditions: CCR3-Receptor Binding Protocol, radioligand 125I-eotaxin-1; read-out: Affinity (Ki-value)
T1 construct: expressed in transfected cells; host or cells: K562 cells (membrane preparation)
T1 sequence (P51677 1-355): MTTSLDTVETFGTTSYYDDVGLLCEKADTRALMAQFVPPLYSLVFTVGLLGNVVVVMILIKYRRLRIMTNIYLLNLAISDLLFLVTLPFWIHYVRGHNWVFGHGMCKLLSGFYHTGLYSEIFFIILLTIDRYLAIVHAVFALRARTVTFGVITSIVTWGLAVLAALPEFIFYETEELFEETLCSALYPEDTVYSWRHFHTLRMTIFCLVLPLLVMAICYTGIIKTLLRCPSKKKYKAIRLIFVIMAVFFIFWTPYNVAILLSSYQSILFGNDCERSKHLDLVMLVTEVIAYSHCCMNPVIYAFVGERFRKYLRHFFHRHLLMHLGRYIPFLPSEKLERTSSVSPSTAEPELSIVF
Text: Cell lines for expressing the receptor of interest include those naturally expressing the chemokine receptor, such as EOL-3 or THP-1, those induced to express the chemokine receptor by the addition of chemical or protein agents, such as HL-60 or AML14.3D10 cells treated with, for example, butyric acid with interleukin-5 present, or a cell engineered to express a recombinant chemokine receptor, such as CHO or HEK-293. Finally, blood or tissue cells, for example human peripheral blood eosinophils, isolated using methods as described by Hansel et al., J. Immunol. Methods, 145, 105–110 (1991), can be utilized in such assays. In particular, the compound of the present invention have activity in binding to the CCR-3 receptor in the aforementioned assays. […] Such a result is indicative of the intrinsic activity of the compounds as modulators of chemokine receptor activity. A general binding protocol is described below.
CCR3-Receptor Binding Protocol
The CCR3 receptor binding test is based on a K562 cell line (leukemia myelogenic blast cells ) transfected with the human chemokine receptor CCR3 (hCCR3-C1). The cell membranes were prepared by disrupting the hCCR3 transfected K562 cells by nitrogen […] and centrifugation at 40000 g, 4° C. for 1 h. The membranes were re-suspended in the SPA incubation buffer (see below) without bovine serum albumin for storage in aliquots at −80° C.
The CCR3 receptor binding assay with the radioligand ^125Jodine-eotaxin-1 was performed in a Scintillation Proximity Assay (SPA) design. Cell membranes of hCCR3 C1 cells were diluted in suitable concentrations (0.5–5 ug protein/well ) in 96 well microtiter plates (1450–401, Wallac).
The test incubation mixture comprising 60 μl of the membrane suspension, 80 μl of the Wheat Germ Agglutinin coated PVT beads (organic scintillator, Amersham Pharmacia biotech) in a concentration of 0.4 mg and 40 μl of radiolabelled ^125J rhEotaxin (Amersham, IM290) were incubated with 20 μl of the test compound (dissolved in DMSO dilutions ) for 2 hours. The SPA incubation buffer contained 25 mM HEPES, 25 mM MgCl2 6×H2O, 1 mM CaCl2 2×H2O and 0.1% bovine serum albumin. Included were controls for specific binding (no displacer added) and non-specific binding by adding unlabelled rhEotaxin (R&D Systems) or a test compound. Bound radioactivity was determined by scintillation counter (Micro Beta “Trilux”, Wallac). Determination of affinity of test compounds (dissociation constant Ki) was calculated by iterative fitting of experimental data using the law of mass action based program “easy sys” (Schittkowski, Num Math 68, 129–142 (1994)).

Structure (SMILES) | Ki [1] [nM] | melting point [°C]
Fc1ccc(C=C2CCN3Cc4ccccc4N=C23)c(Cl)c1 [Example 118] | 100 to 1000 | 202 to 203
COc1ccc(/C=C2\CCN3Cc4ccccc4N=C23)cc1C [Example 119] | 1000 to 10000 | 174 to 175
FC(F)(F)c1ccccc1/C=C1\CCN2Cc3ccccc3N=C12 (as salt: HCl) [Example 108] | – | 109 to 110
Clc1cccc(Cl)c1C=C1CCN2Cc3ccccc3N=C12 [Example 105] | 1000 to 10000 | 198 to 199
N=c1c2c(C3CC3)csc2nc2n1CC/C2=C\c1ccccc1Br [Example 305] | 100 to 1000 | 209
CN(C)c1ccc(/C=C2\CCN3Cc4ccccc4N=C23)cc1 [Example 111] | 1000 to 10000 | 205
CCc1ccccc1C=C1CCN2Cc3ccccc3N=C12 (as salt: hydrochloride) [Example 127, 3-(2-Ethylbenzylidene)-1,2,3,9-tetrahydro-pyrrolo[2,1-b]quinazoline] | – | 224 to 225
Clc1ccc(C=C2CCN3Cc4ccccc4N=C23)c(Cl)c1 [Example 120] | 1000 to 10000 | 187 to 188
Clc1ccccc1C=C1CCN2Cc3ccccc3N=C12 [Example 103] | 1 to 100 | 190 to 191
FC(F)(F)Oc1ccccc1C=C1CCN2Cc3ccccc3N=C12 (as salt: HCl) [Example 122] | – | 225
CN(C)c1ccc(/C=C2\CCN3Cc4ccccc4N=C23)c(Cl)c1 [Example 107] | 1000 to 10000 | –
Brc1ccccc1C=C1CCN2Cc3ccccc3N=C12 [Example 101, 3-(2-Bromobenzylidene)-1,2,3,9-tetrahydro-pyrrolo[2,1-b]quinazoline] | 1 to 100 | –
Cc1sc2nc3n(c(=N)c2c1C)CC/C3=C\c1ccccc1Br [Example 303] | 100 to 1000 | 180
Cc1oc2nc3n(c(=N)c2c1C)CC/C3=C\c1ccccc1Br [Example 306] | 100 to 1000 | > 290
Fc1ccccc1/C=C1\CCN2Cc3ccccc3N=C12 [Example 106] | 1000 to 10000 | –
Clc1ccc(/C=C2\CCN3Cc4ccccc4N=C23)cc1Cl [Example 112] | 100 to 1000 | 200
C(=C1/CCN2Cc3ccccc3N=C12)/c1ccsc1 [Example 116] | 1000 to 10000 | 208 to 209
N=c1c2cccnc2nc2n1CC/C2=C\c1ccccc1Br [Example 208] | 100 to 1000 | 232
Clc1ccccc1C=C1CCCN2Cc3ccccc3N=C12 [Example 126, 6-(2-Chlorobenzylidene)-6,8,9,11-tetrahydro-7H-pyrido[2,1-b]quinazoline] | 1000 to 10000 | 242 to 248
N=c1c2ccccc2nc2n1CCC2=Cc1ccccc1Br [Example 201, 3-(2-Bromobenzylidene)-9-imino-2,3-dihydro-1H-pyrrolo[2,1-b]quinazoline] | 1 to 100 | –
FC(F)(F)c1ccccc1/C=C1\CCN2Cc3ccccc3N=C12 [Example 108] | 1000 to 10000 | –
Brc1cccc2cccc(C=C3CCN4Cc5ccccc5N=C34)c12 [Example 124] | 1000 to 10000 | 252 to 255
CN(C)c1ccc(/C=C2\CCN3Cc4ccccc4N=C23)c(Cl)c1 (as salt: HCl) [Example 107] | – | > 300
C(=C1CCN2Cc3ccccc3N=C12)c1ccco1 [Example 115] | 1000 to 10000 | 170
C(=C1/CCN2Cc3ccccc3N=C12)/c1ccccc1-c1ccccc1 [Example 117] | 1000 to 10000 | –

Continued, values first:

Ki [1] [nM] | melting point [°C] | Structure (SMILES)
1 to 100 | – | N=c1c2ccccc2nc2n1CC/C2=C\c1ccccc1I [Example 203]
– | 257 | CCc1ccccc1C=C1CCN2Cc3ccccc3N=C12 (as salt: HCl) [Example 110]
– | 285 | Fc1ccccc1/C=C1\CCN2Cc3ccccc3N=C12 (as salt: HCl) [Example 106]
1000 to 10000 | 214 to 219 | Clc1ccccc1/C=C1\CCN2Cc3cc(Br)cc(Br)c3N=C12 [Example 102]
1000 to 10000 | – | FC(F)(F)Oc1ccccc1C=C1CCN2Cc3ccccc3N=C12 [Example 122]
1000 to 10000 | 157 to 158 | CCOc1ccccc1/C=C1\CCN2Cc3ccccc3N=C12 [Example 113]
1000 to 10000 | 175 to 177 | COc1ccc(C=C2CCn3c2nc2ccccc2c3=N)cc1 [Example 205]
1 to 100 | 202 to 203 | N=c1c2ccccc2nc2n1CC/C2=C\c1ccccc1Cl [Example 202]
100 to 1000 | 192 to 194 | COc1cc2nc3n(c(=N)c2cc1OC)CC/C3=C\c1ccccc1Br [Example 206]
1000 to 10000 | – | CCc1ccccc1C=C1CCN2Cc3ccccc3N=C12 [Example 110]
– | 255 to 256 | C(=C1/CCN2Cc3ccccc3N=C12)/c1ccccc1-c1ccccc1 (as salt: HCl) [Example 117]
100 to 1000 | – | CCc1ccccc1/C=C1\CCn2c1nc1ccccc1c2=N [Example 204]
1000 to 10000 | 208 to 210 | C(=C1/CCN2Cc3ccccc3N=C12)/c1cccs1 [Example 114]
1 to 100 | 183 to 184 | N=c1c2ccsc2nc2n1CCC2=Cc1ccccc1Br [Example 301, 7-(2-Bromobenzylidene)-6,7-dihydro-5H-1-thia-4a,8-diazo-s-indacen-4-ylideneamine]
